Laboratory results taken from US12421225B2, “Heteroaromatic amide derivative and medicament containing the same” (KAKEN PHARMACEUTICAL CO., LTD., priority 2018, dated 2025).
pIC50: −log10 of the molar value.

Target: human Nav1.7 (Homo sapiens (Human), UniProt Q15858)
Experiment: Human Nav1.7 inhibitory activity evaluation (automated patch clamp QPatch16X, HEK293A cells stably expressing human Nav1.7 and human Navβ1)
Assay type: cell-based
Conditions: HEK293A cells stably expressing human Nav1.7 and human Navβ1, automated patch clamp QPatch16X
Procedure: Test Example 1: Human Nav1.7 Inhibitory Activity Evaluation
A cell line in which human Nav1.7 and human Navβ1 subunits were stably expressed in HEK293A cells was used. Dulbecco's Modified Eagle Medium (DMEM) supplemeted with 10% fetal bovine serum, 600 μg/ml geneticin, and 2 μg/ml blasticidin S were used as culture medium under the conditions of 37° C. and 5% CO2 in T175 flasks to carry out culturing. When 60-80% confluence was reached, the cells were detached and a cell suspension of about 0.5-5.0×10^6 cells/mL was prepared. The amount of current through human Nav1.7 was recorded using a fully automatic patch clamp device QPatch16X (Sophion Biosciences) at room temperature. As the extracellular solution, the solution of 145 mM NaCl, 4 mM KCl, 1 mM MgCl2, 2 mM CaCl2, 10 mM Glucose, 10 mM 4-(2-hydroxyethyl)-1-piperazine ethanesulfonic acid (HEPES) at pH 7.4 was used. As the intracellular solution, the solution of 135 mM CsF, ⅕ mM glycol ether diaminetetraacetic acid (EGTA)/CsOH, 10 mM HEPES, 10 mM NaCl at pH 7.3 was used. The test compounds were dissolved in dimethyl sulfoxide (DMSO) and diluted with the extracellular solution to attain the DMSO concentration of 0.1% at the time of assay.
The current response was obtained at a sampling frequency of 25 kHz, and noise was removed with a 3 kHz low-pass filter. The holding potential was −100 mV. Correction of the leakage current was carried out by applying a step pulse of −120 mV before the test pulse. In order to investigate inhibitory action of the test compound, the following test pulse was given: Namely, after depolarizing pulse of −10 mV was applied for 50 milliseconds, it was fixed at −120 mV for 500 milliseconds; a potential at which about 30-40% of the channel was inactivated was maintained for 15 seconds, then fixed again at −120 mV for 100 milliseconds, and finally a −10 mV depolarization pulse was given for 50 milliseconds. Test pulses were given before and after the test compound addition.
The inhibitory activity of the test compound was determined based on the amount of inward current generated by the second depolarization pulse, and the 50% inhibitory concentration (IC50) was calculated from the concentration-response curve.

Chain of human Nav1.7 (Q15858 whole entry): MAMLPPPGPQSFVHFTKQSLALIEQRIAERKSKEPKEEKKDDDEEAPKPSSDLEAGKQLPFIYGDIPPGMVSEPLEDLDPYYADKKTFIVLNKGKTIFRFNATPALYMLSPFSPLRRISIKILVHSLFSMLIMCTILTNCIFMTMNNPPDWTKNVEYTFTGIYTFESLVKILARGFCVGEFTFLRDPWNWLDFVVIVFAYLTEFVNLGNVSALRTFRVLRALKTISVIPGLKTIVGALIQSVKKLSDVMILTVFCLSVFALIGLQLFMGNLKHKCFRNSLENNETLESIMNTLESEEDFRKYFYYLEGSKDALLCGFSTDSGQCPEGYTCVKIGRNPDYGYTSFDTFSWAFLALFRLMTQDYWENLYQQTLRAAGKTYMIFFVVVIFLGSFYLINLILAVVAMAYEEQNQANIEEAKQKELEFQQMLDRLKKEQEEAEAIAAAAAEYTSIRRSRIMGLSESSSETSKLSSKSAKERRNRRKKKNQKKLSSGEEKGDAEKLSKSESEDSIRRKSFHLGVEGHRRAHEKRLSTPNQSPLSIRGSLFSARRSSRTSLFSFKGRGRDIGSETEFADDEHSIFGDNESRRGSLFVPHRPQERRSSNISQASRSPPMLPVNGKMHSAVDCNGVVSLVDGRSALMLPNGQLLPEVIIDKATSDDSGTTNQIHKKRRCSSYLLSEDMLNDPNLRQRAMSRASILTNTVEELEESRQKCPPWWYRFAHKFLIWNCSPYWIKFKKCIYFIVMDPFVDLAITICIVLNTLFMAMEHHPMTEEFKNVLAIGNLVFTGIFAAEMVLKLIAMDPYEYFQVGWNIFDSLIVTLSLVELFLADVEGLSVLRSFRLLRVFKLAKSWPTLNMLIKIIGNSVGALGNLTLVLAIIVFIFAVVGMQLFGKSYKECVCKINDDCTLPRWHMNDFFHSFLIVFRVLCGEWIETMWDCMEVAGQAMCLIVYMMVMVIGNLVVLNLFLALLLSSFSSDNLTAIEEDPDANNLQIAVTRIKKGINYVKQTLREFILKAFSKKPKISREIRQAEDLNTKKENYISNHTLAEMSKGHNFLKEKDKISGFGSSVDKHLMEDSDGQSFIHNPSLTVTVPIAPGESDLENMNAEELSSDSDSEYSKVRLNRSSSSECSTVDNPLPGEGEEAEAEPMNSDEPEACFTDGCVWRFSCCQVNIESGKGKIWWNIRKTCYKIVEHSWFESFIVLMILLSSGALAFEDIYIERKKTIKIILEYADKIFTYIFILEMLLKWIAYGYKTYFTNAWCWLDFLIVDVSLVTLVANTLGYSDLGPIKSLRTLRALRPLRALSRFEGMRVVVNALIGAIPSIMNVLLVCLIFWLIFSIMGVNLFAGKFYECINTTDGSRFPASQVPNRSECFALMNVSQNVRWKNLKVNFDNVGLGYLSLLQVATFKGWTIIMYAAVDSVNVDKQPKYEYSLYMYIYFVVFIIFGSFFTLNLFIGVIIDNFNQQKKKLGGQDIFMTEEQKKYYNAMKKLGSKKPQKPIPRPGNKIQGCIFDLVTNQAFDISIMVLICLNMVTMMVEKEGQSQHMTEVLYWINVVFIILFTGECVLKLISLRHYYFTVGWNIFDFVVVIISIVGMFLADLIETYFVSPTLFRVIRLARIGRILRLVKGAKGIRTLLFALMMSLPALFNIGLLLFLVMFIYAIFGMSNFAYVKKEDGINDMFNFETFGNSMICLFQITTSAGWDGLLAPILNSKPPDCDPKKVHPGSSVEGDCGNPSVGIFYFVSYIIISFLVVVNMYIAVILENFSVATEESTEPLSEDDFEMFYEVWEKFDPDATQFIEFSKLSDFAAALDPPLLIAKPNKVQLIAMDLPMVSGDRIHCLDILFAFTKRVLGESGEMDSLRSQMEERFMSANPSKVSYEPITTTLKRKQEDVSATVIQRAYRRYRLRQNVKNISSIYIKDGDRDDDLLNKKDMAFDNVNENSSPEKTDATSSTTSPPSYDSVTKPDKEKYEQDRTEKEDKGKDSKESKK
Chain of human Nav1.7 (Q07699 19-218 partner): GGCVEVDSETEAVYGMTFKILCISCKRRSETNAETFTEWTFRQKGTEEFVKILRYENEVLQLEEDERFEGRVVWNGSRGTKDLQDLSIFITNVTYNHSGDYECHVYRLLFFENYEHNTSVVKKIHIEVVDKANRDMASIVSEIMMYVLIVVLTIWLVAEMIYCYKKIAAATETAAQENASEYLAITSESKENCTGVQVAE

SMILES | pIC50
O=C(c1cn2c(n1)CCC(C1CCCCC1)C2)N1CCC1Cc1ccccc1 (stereo not shown) [Example 31] | > 6.00
N#Cc1ccc2c(c1)C[C@@H](NC(=O)c1cc3n(n1)CCC(CC1CC1)O3)CO2 (single isomer, unassigned) [97 (isomer A)] | > 6.00

Same assay, conditions: human Nav1.7, automated patch clamp

SMILES | pIC50
O=C(N[C@H]1COc2ccc(CC(F)F)cc2C1)c1cc2n(n1)CCC(COCC(F)(F)F)CO2 (stereo partly shown) [Example 557] | > 6.00
N#Cc1ccc2c(c1)C(F)[C@@H](NC(=O)c1cc3n(n1)CCC(C(F)(F)F)CO3)CO2 (stereo partly shown) [Example 649] | > 5.00
O=C(N[C@H]1COc2ccc(Cl)cc2C1)c1cc2n(n1)CCC(COCC(F)(F)F)O2 (stereo partly shown) [Example 442] | > 6.00
O=C(N[C@H]1COc2ccc(C(F)(F)F)cc2C1)c1cc2n(n1)CCC(C1CCOCC1)O2 (stereo partly shown) [Example 583] | > 6.00
O=C(N[C@H]1COc2ccc(C(F)(F)F)cc2C1O)c1cc2n(n1)CC(CCOCC1CC1)O2 (single isomer, unassigned) [636 (isomer A)] | > 6.00
O=C(N[C@H]1COc2ccc(CC(F)(F)F)cc2C1)c1cc2n(n1)CC(CCOCC(F)F)O2 (stereo partly shown) [Example 479] | > 6.00
O=C(N[C@H]1COc2ccc(C(F)(F)F)cc2C1O)c1cc2n(n1)CCC(COCC1CC1)O2 (stereo partly shown) [Example 558] | > 6.00
O=C(N[C@H]1COc2ccc(COCC(F)(F)F)cc2C1)c1cc2n(n1)CCC(C1COCCO1)O2 (stereo partly shown) [Example 638] | > 5.00
N#Cc1ccc2c(c1)C(F)[C@@H](NC(=O)c1cc3n(n1)CCC(COCC1CC1)O3)CO2 (single isomer, unassigned) [617 (isomer B)] | > 5.00
N#Cc1ccc2c(c1)C[C@@H](NC(=O)c1cc3n(n1)C[C@H](CC1CCOCC1)O3)CO2 (single isomer, unassigned; isomer a) [577(isomer A)] | > 5.00
O=C(N[C@H]1COc2ccc(CC(F)F)cc2C1)c1cc2n(n1)CC(CCOCC(F)F)O2 (stereo partly shown) [Example 478] | > 6.00
O=C(N[C@H]1COc2ccc(C(F)(F)F)cc2C1OC(F)(F)F)c1cc2n(n1)CCC(C(F)F)O2 (stereo partly shown) [Example 546] | > 6.00
O=C(N[C@H]1COc2ccc(CC(F)F)cc2C1)c1cc2n(n1)CCC(CCOC(F)F)O2 (single isomer, unassigned) [148 (isomer A)] | > 6.00
O=C(N[C@H]1COc2ccc(COCC(F)(F)F)cc2C1)c1cc2n(n1)CCC(COC1CCC1)O2 (stereo partly shown) [Example 438] | > 6.00
O=C(N[C@H]1COc2ccc(COCC(F)(F)F)cc2C1)c1cc2n(n1)CCC(CN1CCC(F)(F)C1)O2 (single isomer, unassigned) [154 (isomer A)] | > 5.00

Now from value to compound:

pIC50 | SMILES
> 6.00 | O=C(N[C@H]1COc2ccc(C3CC3)cc2C1)c1nc2n(c1-c1ccccn1)CCOC2 [Example 342]
> 5.00 | O=C(NC1COc2ccccc2C1)c1cc2n(n1)CCN(C(=O)CCc1ccccc1)C2 (stereo not shown) [Example 510]
> 5.00 | COc1cc(C2(N3CCn4nc(C(=O)N[C@H]5COc6ccc(C#N)cc6C5)cc4C3)CC2)ccn1 [Example 286]
> 5.00 | O=C(N[C@H]1COc2ccc(Cl)cc2C1)c1cc2n(n1)CCCC(c1ccccc1)O2 (stereo partly shown) [Example 480]
> 5.00 | CN1Cc2nc(C(=O)NCCc3c[nH]c4ccccc34)cn2CC1c1ccccc1 (stereo not shown) [Example 323]
> 6.00 | CN1Cc2nc(C(=O)N3CCC(F)(c4ccccc4Cl)C3)cn2CC1c1ccccc1 (stereo not shown) [Example 329]
> 6.00 | O=C(N[C@H]1COc2ccc(CCOC(F)F)cc2C1)c1cc2n(n1)CC(CCN1CC(F)(F)C1)O2 (single isomer, unassigned) [238 (isomer A)]
> 6.00 | O=C(N[C@H]1COc2ccc(-c3cnccn3)cc2C1)c1cc2n(n1)CC(CCOCC1(C(F)(F)F)CC1)O2 (stereo partly shown) [Example 467]
> 6.00 | O=C(N[C@H]1COc2ccc(Cl)cc2C1)c1cc2n(n1)CCC(CC(F)F)O2 (stereo partly shown) [Example 404]
> 6.00 | N#Cc1ccc2c(c1)C[C@@H](NC(=O)c1cc3n(n1)CCN(CCc1ccc(F)cc1)C3)CO2 [Example 269]
> 5.00 | Cc1cnc(-c2ccc3c(c2)C[C@@H](NC(=O)c2cc4n(n2)CC(COCC(F)(F)F)O4)CO3)cn1 (stereo partly shown) [Example 193]
